Key:
Assay in all cases: relative viability (nuclei count vs DMSO), 5 days (fraction); higher = more cells survive
[1] = compound: CN(NC(=O)CC(=O)NN(C)C(=S)c1ccccc1)C(=S)c1ccccc1 [Elesclomol] + C[C@]1(O)C[C@@H](c2nc(-c3ccc4ccc(-c5ccccc5)nc4c3)c3c(N)nccn32)C1 [Linsitinib] (partner 1 µM)
Summary of the method: (§1)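 Nuclei were stained with Hoechst during a one-step fixation (final 0.05% Triton X-100, 1% formaldehyde, 1 ug/ml Hoechst) carried out 5 days after dosing, then counted on 4× images. The cells, lung cancer lines in 1536-well plates, had been dosed by pin tool the day after seeding with one drug alone or a fixed anchor-drug dose plus five library-drug doses (not always all listed) in √10 steps. Relative viability is the nuclei count in treated wells divided by that in vehicle wells, and each value is the median of duplicate plates.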

[2] = compound: CN(NC(=O)CC(=O)NN(C)C(=S)c1ccccc1)C(=S)c1ccccc1 [Elesclomol] + Cc1cc(Nc2cc(N3CCN(C)CC3)nc(Sc3ccc(NC(=O)C4CC4)cc3)n2)n[nH]1 [Tozasertib] (partner 0.1 µM)
Summary of the method: as §1

[3] = compound: CN(NC(=O)CC(=O)NN(C)C(=S)c1ccccc1)C(=S)c1ccccc1 [Elesclomol] + Cc1nc(Nc2ncc(C(=O)Nc3c(C)cccc3Cl)s2)cc(N2CCN(CCO)CC2)n1 [Dasatinib] (partner 0.075 µM)
Summary of the method: as §1

[4] = compound: CN(NC(=O)CC(=O)NN(C)C(=S)c1ccccc1)C(=S)c1ccccc1 [Elesclomol] + O=C(CCCCCCC(=O)Nc1ccccc1)NO [Vorinostat] (partner 1 µM)
Summary of the method: as §1

[5] = compound: CN(NC(=O)CC(=O)NN(C)C(=S)c1ccccc1)C(=S)c1ccccc1 [Elesclomol] + O=C(c1cc(Cc2n[nH]c(=O)c3ccccc23)ccc1F)N1CCN(C(=O)C2CC2)CC1 [Olaparib] (partner 8 µM)
Summary of the method: as §1

Row | Cell Line | relative viability ([1]; first compound 0.003162 µM) | relative viability ([1]; first compound 0.01 µM) | relative viability ([1]; first compound 0.03162 µM) | relative viability ([1]; first compound 0.1 µM) | relative viability ([2]; first compound 0.003162 µM) | relative viability ([2]; first compound 0.01 µM) | relative viability ([2]; first compound 0.03162 µM) | relative viability ([2]; first compound 0.1 µM) | relative viability ([3]; first compound 0.003162 µM) | relative viability ([3]; first compound 0.01 µM) | relative viability ([3]; first compound 0.03162 µM) | relative viability ([3]; first compound 0.1 µM) | relative viability ([4]; first compound 0.003162 µM) | relative viability ([4]; first compound 0.01 µM) | relative viability ([4]; first compound 0.03162 µM) | relative viability ([4]; first compound 0.1 µM) | relative viability ([5]; first compound 0.003162 µM) | relative viability ([5]; first compound 0.01 µM) | relative viability ([5]; first compound 0.03162 µM) | relative viability ([5]; first compound 0.1 µM)
1 | LOU-NH91 | 0.925 | 0.856 | 0.703 | 0.542 | 0.631 | 0.575 | 0.581 | 0.568 | 0.546 | 0.52 | 0.428 | 0.432 | 1.02 | 0.826 | 0.782 | 0.66 | 0.898 | 0.825 | 0.829 | 0.606
2 | LU99A | 0.544 | – | 0.615 | 0.117 | 0.305 | 0.245 | 0.274 | 0.165 | 0.569 | 0.39 | 0.512 | 0.185 | 0.438 | 0.459 | 0.429 | 0.162 | 0.286 | 0.223 | 0.247 | 0.173
3 | LXF-289 | 0.941 | 0.863 | 0.938 | 0.693 | 0.193 | 0.17 | 0.188 | 0.174 | 0.243 | 0.176 | 0.202 | 0.113 | 0.79 | 0.779 | 0.706 | 0.483 | 1.11 | 1.01 | 0.939 | 0.544
4 | NCI-H23 | 0.572 | – | 0.504 | 0.143 | 0.349 | 0.311 | 0.36 | 0.128 | 0.823 | 0.725 | 0.743 | 0.171 | 0.559 | 0.385 | 0.318 | 0.0919 | 0.3 | 0.267 | 0.187 | 0.0908
5 | NCI-H322M | 0.977 | – | 0.916 | 0.606 | 0.335 | 0.275 | 0.186 | 0.122 | 0.251 | 0.206 | 0.123 | 0.0962 | 0.72 | 0.42 | 0.289 | 0.191 | 0.665 | 0.572 | 0.388 | 0.208
6 | NCI-H358 | 0.279 | 0.234 | 0.152 | 0.156 | 0.0718 | 0.0649 | 0.0613 | 0.0545 | 0.0973 | 0.101 | 0.0734 | 0.0654 | 0.62 | 0.0764 | 0.0906 | 0.0819 | 0.758 | 0.346 | 0.107 | 0.138
7 | NCI-H441 | 0.386 | 0.511 | 0.276 | 0.0877 | 0.546 | 0.794 | 0.332 | 0.1 | 0.547 | 0.656 | 0.451 | 0.0877 | 0.553 | 0.729 | 0.445 | 0.17 | 0.48 | 0.602 | 0.311 | 0.148
8 | NCI-H460 | 0.719 | 0.123 | 0.0104 | 0.01 | 0.497 | 0.365 | 0.116 | 0.0193 | 0.516 | 0.422 | 0.0534 | 0.0171 | 0.712 | 0.508 | 0.275 | 0.018 | 0.421 | 0.251 | 0.194 | 0.0303
9 | NCI-H520 | 1.04 | 0.912 | 0.354 | 0.0801 | 0.442 | 0.355 | 0.223 | 0.181 | 0.166 | 0.158 | 0.138 | 0.0789 | 0.775 | 0.662 | 0.225 | 0.0994 | 0.333 | 0.32 | 0.152 | 0.0887
10 | NCI-H596 | 1.12 | 1.13 | 0.978 | 0.267 | 0.925 | 0.828 | 0.598 | 0.178 | 0.606 | 0.545 | 0.575 | 0.21 | 0.632 | 0.577 | 0.485 | 0.219 | 0.672 | 0.608 | 0.503 | 0.258
11 | NCI-H647 | 1.1 | 0.801 | 0.753 | 0.0738 | 0.388 | 0.212 | 0.0671 | 0.0175 | 0.172 | 0.142 | 0.0544 | 0.0326 | 0.24 | 0.337 | 0.133 | 0.0479 | 0.547 | 0.357 | 0.128 | 0.0704
12 | NCI-H650 | 1.04 | 0.308 | 0.304 | 0.291 | 0.737 | 0.351 | 0.222 | 0.192 | 0.535 | 0.341 | 0.227 | 0.24 | 0.539 | 0.38 | 0.184 | 0.132 | 0.426 | 0.319 | 0.204 | 0.241
13 | NCI-H661 | 0.55 | 0.242 | 0.169 | 0.145 | 0.356 | 0.3 | 0.245 | 0.213 | 0.869 | 0.477 | 0.223 | 0.177 | 0.768 | 0.565 | 0.304 | 0.26 | 0.702 | 0.464 | 0.271 | 0.186
14 | NCI-H727 | 0.297 | 0.217 | 0.117 | 0.0471 | 0.661 | 0.357 | 0.424 | 0.249 | 0.319 | 0.242 | 0.128 | 0.0864 | 1.14 | 1.18 | 1.03 | 0.641 | 0.587 | 0.7 | 0.712 | 0.416
15 | NCI-H838 | 1.02 | 0.907 | 0.879 | 0.688 | 0.282 | 0.25 | 0.18 | 0.172 | 0.287 | 0.296 | 0.224 | 0.177 | 0.723 | 0.706 | 0.609 | 0.303 | 0.765 | 0.721 | 0.488 | 0.215
16 | NCI-H1355 | 0.803 | 0.663 | 0.486 | 0.17 | 0.505 | 0.538 | 0.332 | 0.173 | 0.736 | 0.639 | 0.396 | 0.178 | 0.617 | 0.524 | 0.418 | 0.213 | 0.724 | 0.648 | 0.347 | 0.209
17 | NCI-H1395 | 0.857 | 0.347 | 0.716 | 0.26 | 0.832 | 0.461 | 0.243 | 0.276 | 0.387 | 0.304 | 0.266 | 0.22 | 0.814 | 0.46 | 0.245 | 0.215 | 0.449 | 0.364 | 0.254 | 0.22
18 | NCI-H1437 | 0.883 | 0.56 | 0.271 | 0.186 | 0.348 | 0.344 | 0.252 | 0.23 | 0.246 | 0.18 | 0.116 | 0.128 | 0.74 | 0.411 | 0.322 | 0.334 | 0.555 | 0.461 | 0.379 | 0.359
19 | NCI-H1651 | 0.748 | 0.673 | 0.193 | 0.111 | 0.6 | 0.601 | 0.116 | 0.108 | 0.343 | 0.258 | 0.115 | 0.0916 | 0.557 | 0.527 | 0.519 | 0.434 | 0.185 | 0.184 | 0.192 | 0.135
20 | NCI-H1666 | 0.833 | 0.358 | 0.321 | 0.202 | 0.579 | 0.457 | 0.375 | 0.403 | 0.9 | 0.585 | 0.412 | 0.378 | 1.05 | 0.91 | 0.836 | 0.714 | 0.666 | 0.703 | 0.662 | 0.603
21 | NCI-H1734 | 0.907 | 0.745 | 0.8 | 0.154 | 0.276 | 0.24 | 0.126 | 0.0951 | 0.473 | 0.421 | 0.144 | 0.113 | 0.859 | 0.592 | 0.207 | 0.101 | 0.586 | 0.519 | 0.165 | 0.0747
22 | NCI-H1755 | 1.01 | 1.04 | 0.967 | 0.223 | 0.625 | 0.47 | 0.421 | 0.288 | 0.446 | 0.357 | 0.433 | 0.214 | 0.742 | 0.637 | 0.787 | 0.364 | 0.87 | 0.813 | 0.938 | 0.692
23 | NCI-H1793 | 0.901 | 0.733 | 0.927 | 0.25 | 0.356 | 0.286 | 0.348 | 0.132 | 0.358 | 0.268 | 0.373 | 0.136 | 0.808 | 0.623 | 0.613 | 0.117 | 0.818 | 0.692 | 0.386 | 0.0938
24 | NCI-H1915 | 1.09 | – | 1.05 | 0.971 | 0.412 | – | 0.397 | 0.258 | 0.337 | – | 0.317 | 0.21 | 0.517 | 0.324 | 0.573 | 0.205 | 0.256 | 0.243 | 0.231 | 0.169
25 | NCI-H1944 | 1.14 | 1.18 | 1.12 | 1.13 | 0.236 | 0.251 | 0.23 | 0.139 | 0.223 | 0.205 | 0.229 | 0.155 | 0.652 | 0.578 | 0.459 | 0.166 | 0.421 | 0.412 | 0.358 | 0.209
26 | NCI-H1975 | 0.942 | 0.764 | 0.225 | 0.126 | 0.733 | 0.517 | 0.118 | 0.0791 | 0.344 | 0.223 | 0.163 | 0.0599 | 0.765 | 0.648 | 0.183 | 0.12 | 0.752 | 0.633 | 0.337 | 0.183
27 | NCI-H1993 | 0.72 | 0.823 | 0.683 | 0.591 | 0.568 | 0.491 | 0.452 | 0.401 | 0.577 | 0.508 | 0.494 | 0.453 | 0.897 | 0.817 | 0.469 | 0.288 | 0.967 | 0.789 | 0.516 | 0.393
